Experimental data taken from patent US8058261B2, “3′-ethynylcytidine derivative” (Taiho Pharmaceutical Co., Ltd., priority 2006, dated 2011).
Structures can show the parent of a compound that is named as a salt.

How the values were obtained:
[1] = system: Yoshida Sarcoma cell line (rat ascites tumor); test: Antitumor effect when perorally administered, Donryu rat subcutaneous tumor implantation system; assay type: in vivo, Donryu rats; settings: perorally once a day for seven days at 12 μmol/kg/day; tumor weight seven days after grouping vs non-treatment group; ECyd equimolar
Description: Pharmacological Test Example 1 Antitumor Effect of the Compound of the Present Invention When Perorally Administered to Donryu Rat Subcutaneous Tumor Implantation System
Cells of a Yoshida Sarcoma cell line (rat ascites tumor) intraperitoneally subcultured in Donryu rats (Charles River Laboratories Japan, Inc.) were implanted subcutaneously to 5-week-old Donryu rats in the back thereof at 2×10^4 cells/0.2 mL. Four days after implantation, the body weight of each rat was measured, and the rats were grouped so that the average body weight was nearly equal between the groups (7 rats per group).
Each of the ECyd derivatives was dissolved or suspended in 0.5% hydroxypropylmethylcellulose solution, and the resultant solution or suspension was perorally administered to each rat every day from the day of grouping once a day for seven days at a dose of 12 μmol/kg/day. The ECyd derivative was evaluated three times. As a control in each test, ECyd was used in an equimolar amount as the ECyd derivative.
Seven days after the day of grouping, the tumor weight of the rat in the pharmaceutical agent administration group was measured. The tumor weight of the rat to which no pharmaceutical agent had been administered (non-treatment group) was also measured. The average tumor weight of each of the pharmaceutical agent administration group and the non-treatment group was calculated. Tumor growth inhibition rate (IR) was determined through use of the following equation, whereby antitumor effect was evaluated. IR(%)=[1−(TWtest)/(TWcont)]×100 (Equation 1) [wherein TWtest and TWcont represent the average tumor weight of the pharmaceutical agent administration group and the non-treatment group, respectively].

[2] = Serum ECyd level after peroral administration; assay type: in vivo; settings: perorally administered to Donryu male rats; compared with ECyd
Description: Separately, the compound of the present invention was perorally administered to Donryu male rats, and serum ECyd level was measured.

[3] = system: human tumor cells; settings: intravenous 0.25 mg/kg for ten continuous days; gastric, colon, pancreatic, esophageal, bile duct, lung, breast, renal cancer strains; cited from earlier work

| SMILES | melting point | Tumor growth inhibition rate IR (%) [1] [%] | serum ECyd level (concentration in blood) [2] | anti-tumor effect [3] |
| --- | --- | --- | --- | --- |
| C#C[C@@]1(O)[C@@H](CO[Si](C)(C)C(C)(C)C(C)C)O[C@@H](n2ccc(N)nc2=O)[C@@H]1O | > 197 °C (dec.) |  |  |  |
| C#C[C@@]1(O)[C@@H](CO[Si](C)(C)c2ccccc2)O[C@@H](n2ccc(N)nc2=O)[C@@H]1O | 171 to 173 °C |  |  |  |
| C#C[C@@]1(O)[C@@H](CO)O[C@@H](n2ccc(N)nc2=O)[C@@H]1O[Si](C)(C)C(C)(C)C(C)C [Compound 14, 1-(2-O-Dimethylthexylsilyl-3-C-ethynyl-1-β-D-ribofuranosyl)cytosine] | 218 °C | 99.8 | particularly high concentration in blood |  |
| C#C[C@@]1(O)[C@@H](CO)O[C@@H](n2ccc(N)nc2=O)[C@@H]1O[Si](C(C)C)(C(C)C)C(C)C [Compound 11, 1-(2-O-Triisopropylsilyl-3-C-ethynyl-1-β-D-ribofuranosyl)cytosine] |  | 88.3 | particularly high concentration in blood |  |
| C#C[C@@]1(O)[C@@H](CO[Si](C)(C)C(C)(C)C)O[C@@H](n2ccc(NC(=O)OC(C)(C)C)nc2=O)[C@@H]1O | 103 to 110 °C |  |  |  |
| C#C[C@@]1(O)[C@@H](CO[Si](c2ccccc2)(c2ccccc2)C(C)(C)C)O[C@@H](n2ccc(N)nc2=O)[C@@H]1O (hydrate or solvate) | 210 to 213 °C |  |  |  |
| C#C[C@@]1(O)[C@@H](CO[Si](C)(C)C(C)(C)C)O[C@@H](n2ccc(NC(=O)CCCCCC)nc2=O)[C@@H]1O [Compound 15, 1-[5-O-(tert-Butyldimethylsilyl)-3-C-ethynyl-β-D-ribofuranosyl]-4-N-heptanoylcytosine] | 134 to 137 °C |  | particularly high concentration in blood |  |
| C#C[C@@]1(O)[C@@H](CO[Si](C)(C)C(C)(C)C)O[C@@H](n2ccc(N)nc2=O)[C@@H]1O [Compound 1, 1-[5-O-(tert-Butyldimethylsilyl)-3-C-ethynyl-β-D-ribofuranosyl]cytosine] | 251 to 256 °C (dec.) | 94.6 | particularly high concentration in blood |  |
| C#C[C@@]1(O)[C@@H](CO)O[C@@H](n2ccc(N)nc2=O)[C@@H]1O[Si](C)(C)C(C)(C)C [Compound 9, 1-[2-O-(tert-Butyldimethylsilyl)-3-C-ethynyl-1-β-D-ribofuranosyl]cytosine] |  | 99.6 | particularly high concentration in blood |  |
| C#C[C@@]1(O)[C@@H](CO[Si](C(C)C)(C(C)C)C(C)C)O[C@@H](n2ccc(N)nc2=O)[C@@H]1O [Compound 3, 1-[5-O-Triisopropylsilyl-3-C-ethynyl-β-D-ribofuranosyl]cytosine] | > 219 °C (dec.) | 93.4 | particularly high concentration in blood |  |
| C#C[C@@]1(O)[C@@H](CO[Si](C)(C)CCCCCCCC)O[C@@H](n2ccc(N)nc2=O)[C@@H]1O [Compound 4, 1-[5-O-(Dimethyl-n-octylsilyl)-3-C-ethynyl-β-D-ribofuranosyl]cytosine] | 175 to 177 °C (dec.) |  | particularly high concentration in blood |  |
| C#C[C@@]1(O)[C@@H](CO[Si](C(C)C)(C(C)C)C(C)C)O[C@@H](n2ccc(NC(=O)CN(C)C)nc2=O)[C@@H]1O [Compound 18, 1-[5-O-(Triisopropylsilyl)-3-C-ethynyl-β-ribofuranosyl]-4-N-(N,N-dimethylglycyl)cytosine] | 146 to 148 °C |  | particularly high concentration in blood |  |
| C#C[C@@]1(O)[C@@H](CO)O[C@@H](n2ccc(N)nc2=O)[C@@H]1O[Si](C)(C)C(C)(C)C(C)C (as salt: trifluoroacetic acid salt) [Compound 13, 1-(2-O-Dimethylthexylsilyl-3-C-ethynyl-1-β-D-ribofuranosyl)cytosine trifluoroacetic acid salt] | 182 °C |  |  |  |
| C#C[C@@]1(O)[C@@H](CO[Si](C)(C)C(C)(C)C)O[C@@H](n2ccc(NC(=O)CN(C)C)nc2=O)[C@@H]1O [Compound 17, 1-[5-O-(tert-Butyldimethylsilyl)-3-C-ethynyl-β-D-ribofuranosyl]-4-N-(N,N-dimethylglycyl)cytosine] | 180 to 185 °C |  | particularly high concentration in blood |  |
| C#C[C@@]1(O)[C@@H](CO[Si](CC)(CC)CC)O[C@@H](n2ccc(N)nc2=O)[C@@H]1O | 202 to 204 °C |  |  |  |
| C#C[C@@]1(O)[C@@H](CO[Si](C)(C)C(C)(C)C(C)C)O[C@@H](n2ccc(N)nc2=O)[C@@H]1O[Si](C)(C)C(C)(C)C(C)C [Compound 12, 1-(2,5-bis-O-Dimethylthexylsilyl-3-C-ethynyl-1-β-D-ribofuranosyl)cytosine] | 106 to 108 °C | 91.5 | particularly high concentration in blood |  |
| C#C[C@@]1(O)[C@@H](CO)O[C@@H](n2ccc(N)nc2=O)[C@@H]1O [ECyd, 3′-ethynylcytidine] |  | 46.6 |  | excellent anti-tumor effect more greatly than any of fluoropyrimidine-based drugs |
